target: T1, glutathione S-transferase (GST)-linked full-length human Syk protein (Homo sapiens, UniProt P43405); assay: Syk enzyme assay; type: biochemical; details: 0.83 nM Syk, time-resolved fluorescence; read-out: IC50 of Syk-inhibitory activity
T1 construct: glutathione S-transferase (GST)-linked full-length human Syk protein; purchased Carna Biosciences; host or cells: Baculovirus expression system
Experimental: A glutathione S-transferase (GST)-linked full-length human Syk protein (Carna Biosciences), which had been generated using a Baculovirus expression system, was used in the Syk enzyme assay.
7.5 μl of a reaction solution (0.83 nM Syk, 20 mM HEPES, 10 mM MgCl2, 50 mM NaCl, 2 mM DTT, 0.05% BSA, pH 7.0) containing a Syk protein and a predetermined concentration of a test compound was shaken for 2 minutes, and it was then left at rest at room temperature for 13 minutes. Thereafter, 0.5 μM substrate peptide (Biotin-[…]-NH2) and 5 μL of a solution containing 67.5 μM ATP were added to the reaction solution, and the obtained mixture was then shaken for 2 minutes. The reaction solution was further left at rest at room temperature for 40 minutes, so as to carry out an enzyme reaction.
Thereafter, 50 μL of a reaction termination solution [60 nM APC-SA, 0.45 μg/mL Eu-PT66, 30 mM HEPES (pH 7.0), 150 mM KF, 30 mM EDTA, 0.15% BSA, 0.075% Tween20] containing Allophycocyanin-Streptavidin (APC-SA; PerkinElmer) and an Eu-W1024-labeled anti-phosphotyrosine PT66 antibody (Eu-PT66; PerkinElmer) was added to the reaction solution to terminate the enzyme reaction. At the same time, the reaction solution was left at rest at room temperature for 1 hour, so as to carry out an antigen-antibody reaction. Thereafter, using EnVision (PerkinElmer), the level of time-resolved fluorescence was measured at 615 nm and 665 nm, so that the phosphorylation of the substrate peptide was measured.
The following are used in Table 5 to denote standards for evaluating IC50 of Syk-inhibitory activity. • A: Up to 10 nM • B: 10 to 50 nM • C: 50 to 100 nM

| SMILES | IC50 [nM] |
| --- | --- |
| CCCC[C@@H](Nc1nc(Nc2cc(F)c3c(c2)c(OC)nn3C)c(C(N)=O)cc1F)[C@H](C)N [Example 2-155, 6-(((2S,3R)-2-aminoheptan-3-yl)amino)-5-fluoro-2-((7-fluoro-3-methoxy-1-methyl-1H-indazol-5-yl)amino)nicotinamide] | < 10 |
| CCCC[C@@H](Nc1nc(Nc2cnc3c(c2)c(C)nn3C)c(C(N)=O)cc1F)[C@H](C)N [Example 2-244, 6-(((2S,3R)-2-aminoheptan-3-yl)amino)-2-((1,3-dimethyl-1H-pyrazolo[3,4-b]pyridin-5-yl)amino)-5-fluoronicotinamide] | 10 to 50 |
| CCC[C@@H](Nc1nc(Nc2ccc3c(c2)c(OC(F)F)nn3CCOC)c(C(N)=O)cc1F)[C@H](C)N [Example 2-353, 6-(((2S,3R)-2-aminohexan-3-yl)amino)-2-((3-(difluoromethoxy)-1-(2-methoxyethyl)-1H-indazol-5-yl)amino)-5-fluoronicotinamide] | < 10 |
| COc1cc(Nc2nc(N[C@H](c3ccccc3F)[C@H](C)N)c(F)cc2C(N)=O)cc(OC)n1 [Example 2-411, 6-(((1R,2S)-2-amino-1-(2-fluorophenyl)propyl)amino)-2-((2,6-dimethoxypyridin-4-yl)amino)-5-fluoronicotinamide] | < 10 |
| CCn1ncc2cc(Nc3nc(N[C@@H](CN)Cc4ccccc4)c(F)cc3C(N)=O)ccc21 [Example 2-363, (R)-6-((1-amino-3-phenylpropan-2-yl)amino)-2-((1-ethyl-1H-indazol-5-yl)amino)-5-fluoronicotinamide] | 10 to 50 |
| CC(C)C[C@H](CN)Nc1nc(Nc2cnc3c(c2)c(N(C)C)nn3C)c(C(N)=O)cc1F [Example 2-287, (R)-6-((1-amino-4-methylpentan-2-yl)amino)-2-((3-(dimethylamino)-1-methyl-1H-pyrazolo[3,4-b]pyridin-5-yl)amino)-5-fluoronicotinamide] | 10 to 50 |
| CCOc1ncc(Nc2nc(N[C@H](CC)[C@H](C)N)c(F)cc2C(N)=O)cc1-n1cccn1 [Example 2-200, 6-(((2S,3R)-2-aminopentan-3-yl)amino)-2-((6-ethoxy-5-(1H-pyrazol-1-yl)pyridin-3-yl)amino)-5-fluoronicotinamide] | 10 to 50 |
| Cc1cnn(-c2cncc(Nc3nc(N[C@@H](CN)CC(C)C)c(F)cc3C(N)=O)c2)c1 [Example 2-524, (R)-6-((1-amino-4-methylpentan-2-yl)amino)-5-fluoro-2-((5-(4-methyl-1H-pyrazol-1-yl)pyridin-3-yl)amino)nicotinamide] | < 10 |
| COc1ncc(Nc2nc(N[C@@H]3CCCC[C@@H]3N)c(F)cc2C(N)=O)cc1C(C)=O [Example 2-515, 2-((5-acetyl-6-methoxypyridin-3-yl)amino)-6-(((1R,2S)-2-aminocyclohexyl)amino)-5-fluoronicotinamide] | 10 to 50 |
| Cc1ncc(Nc2nc(N[C@@H]3CCC(F)(F)C[C@@H]3N)c(F)cc2C(N)=O)cc1-n1nccn1 (racemic) [Example 2-564, Mixture of 6-((2-amino-4,4-difluorocyclohexyl)amino)-5-fluoro-2-((6-methyl-5-(2H-1,2,3-triazol-2-yl)pyridin-3-yl)amino)nicotinamide (1R,2S), (1S,2R)] | 10 to 50 |
| CCc1cccc(Nc2nc(N[C@@H]3CCCC[C@@H]3N)c(F)cc2C(N)=O)c1 [Example 2-450, 6-(((1R,2S)-2-aminocyclohexyl)amino)-2-((3-ethylphenyl)amino)-5-fluoronicotinamide] | < 10 |
| C[C@H](N)[C@H](Nc1nc(Nc2cnc3c(c2)c(N(C)C)nn3C)c(C(N)=O)cc1F)C1CCC1 [Example 2-293, 6-(((1R,2S)-2-amino-1-cyclobutylpropyl)amino)-2-((3-(dimethylamino)-1-methyl-1H-pyrazolo[3,4-b]pyridin-5-yl)amino)-5-fluoronicotinamide] | < 10 |
| COc1cc(Nc2nc(N[C@H](C(C)C)[C@H](C)N)c(F)cc2C(N)=O)cc(OC)n1 [Example 2-108, 6-(((2S,3R)-2-amino-4-methylpentan-3-yl)amino)-2-((2,6-dimethoxypyridin-4-yl)amino)-5-fluoronicotinamide] | 50 to 100 |
| CCn1ncc2ccc(Nc3nc(N[C@H](C(C)C)[C@H](C)N)c(F)cc3C(N)=O)cc21 [Example 2-103, 6-(((2S,3R)-2-amino-4-methylpentan-3-yl)amino)-2-((1-ethyl-1H-indazol-6-yl)amino)-5-fluoronicotinamide] | 50 to 100 |
| NC(=O)c1cc(F)c(N[C@@H]2CCCC[C@@H]2N)nc1Nc1ccc(F)c(F)c1 [Example 2-447, 6-(((1R,2S)-2-aminocyclohexyl)amino)-2-((3,4-difluorophenyl)amino)-5-fluoronicotinamide] | < 10 |
| Cc1cnn(-c2cncc(Nc3nc(N[C@@H]4CCOC[C@@H]4N)c(F)cc3C(N)=O)c2)c1 [Example 2-526, 6-(((3R,4R)-3-aminotetrahydro-2H-pyran-4-yl)amino)-5-fluoro-2-((5-(4-methyl-1H-pyrazol-1-yl)pyridin-3-yl)amino)nicotinamide] | < 10 |
| COCCn1ncc2c(Nc3nc(N[C@H](COC)[C@H](C)N)c(F)cc3C(N)=O)cccc21 [Example 2-309, 6-(((2S,3S)-3-amino-1-methoxybutan-2-yl)amino)-5-fluoro-2-((1-(2-methoxyethyl)-1H-indazol-4-yl)amino)nicotinamide] | 10 to 50 |
| C[C@H](N)[C@H](Nc1nc(Nc2cnc(N3CCOCC3)nc2)c(C(N)=O)cc1F)C1CC1 [Example 2-563, 6-(((1R,2S)-2-amino-1-cyclopropylpropyl)amino)-5-fluoro-2-((2-morpholinopyrimidin-5-yl)amino)nicotinamide] | 50 to 100 |

More lines, now with the values ahead:

| IC50 [nM] | SMILES |
| --- | --- |
| 10 to 50 | COCCOc1ncc(Nc2nc(N[C@H](C3CC3)[C@H](C)N)c(F)cc2C(N)=O)cc1-n1nccn1 [Example 2-161, 6-(((1R,2S)-2-amino-1-cyclopropylpropyl)amino)-5-fluoro-2-((6-(2-methoxyethoxy)-5-(2H-1,2,3-triazol-2-yl)pyridin-3-yl)amino)nicotinamide] |
| 50 to 100 | COCCOc1cc(Nc2nc(N[C@H](C)[C@@H](N)C3CC3)c(F)cc2C(N)=O)ccn1 [Example 2-228, 6-(((1S,2R)-1-amino-1-cyclopropylpropan-2-yl)amino)-5-fluoro-2-((2-(2-methoxyethoxy)pyridin-4-yl)amino)nicotinamide] |
| 10 to 50 | C[C@H](N)[C@H](Nc1nc(Nc2ccc(F)c(F)c2)c(C(N)=O)cc1F)C1CC1 [Example 2-59, 6-(((1R,2S)-2-amino-1-cyclopropylpropyl)amino)-2-((3,4-difluorophenyl)amino)-5-fluoronicotinamide] |
| < 10 | COCCN(C)c1nn(C)c2ccc(Nc3nc(N[C@H](C4CC4)[C@H](C)N)c(F)cc3C(N)=O)cc12 [Example 2-460, 6-(((1R,2S)-2-amino-1-cyclopropylpropyl)amino)-5-fluoro-2-((3-((2-methoxyethyl)(methyl)amino)-1-methyl-1H-indazol-5-yl)amino)nicotinamide] |
| 10 to 50 | COc1ncc(Nc2nc(N[C@H](C3CCC3)[C@H](C)N)c(F)cc2C(N)=O)cc1F [Example 2-63, 6-(((1R,2S)-2-amino-1-cyclobutylpropyl)amino)-5-fluoro-2-((5-fluoro-6-methoxypyridin-3-yl)amino)nicotinamide.] |
| 10 to 50 | CC[C@H](N)[C@H](Nc1nc(Nc2cnc(C)c(F)c2)c(C(N)=O)cc1F)C1CC1 [Example 2-382, 6-(((1R,2S)-2-amino-1-cyclopropylbutyl)amino)-5-fluoro-2-((5-fluoro-6-methylpyridin-3-yl)amino)nicotinamide] |
| 50 to 100 | C[C@@H](Nc1nc(Nc2ccc3c(c2)c(N(C)C)nn3C)c(C(N)=O)cc1F)[C@@H](N)C1CC1 [Example 2-301, 6-(((1S,2R)-1-amino-1-cyclopropylpropan-2-yl)amino)-2-((3-(dimethylamino)-1-methyl-1H-indazol-5-yl)amino)-5-fluoronicotinamide] |
| < 10 | Cc1cnn(-c2cncc(Nc3nc(N[C@H](C4CC4)[C@H](C)N)c(F)cc3C(N)=O)c2)n1 [Example 2-532, 6-(((1R,2S)-2-amino-1-cyclopropylpropyl)amino)-5-fluoro-2-((5-(4-methyl-2H-1,2,3-triazol-2-yl)pyridin-3-yl)amino)nicotinamide] |
| 10 to 50 | COCCNc1nn(C)c2ccc(Nc3nc(N[C@H](C4CC4)[C@H](C)N)c(F)cc3C(N)=O)cc12 [Example 2-464, 6-(((1R,2S)-2-amino-1-cyclopropylpropyl)amino)-5-fluoro-2-((3-((2-methoxyethyl)amino)-1-methyl-1H-indazol-5-yl)amino)nicotinamide] |
| < 10 | COC[C@@H](Nc1nc(Nc2ccc3c(c2)c(N(C)C)nn3C)c(C(N)=O)cc1F)[C@H](C)N [Example 2-120, 6-(((2S,3S)-3-amino-1-methoxybutan-2-yl)amino)-2-((3-(dimethylamino)-1-methyl-1H-indazol-5-yl)amino)-5-fluoronicotinamide] |

— patent US9051310B2, “Nicotinamide derivative or salt thereof” (FUJIFILM Corporation, priority 2011, dated 2015)
